{
  "source": "patent US5593989A",
  "about": "“Tetracyclic 1,4-oxazine compounds” (Adir et Compagnie, priority 1994, dated 1997)",
  "key": {"[1]": {"test_system": "cloned rat D3 receptors vs D2 receptors", "test": "D3 vs D2 binding selectivity, cloned rat receptors", "protocol": "(§1) in vitro: by the technique of binding to human and rat D2 and D3 receptors (expressed independently and in a stable manner in CHO cells);\n(§2) The affinity of the compounds for human or rat D3 and D2 receptors (expressed independently and in a stable manner in CHO cells) was determined in membrane preparations using [^125 I]-iodosulpiride as radioligand (Sokoloff et al, op. cit.), raclopride (10 μM) determining the non-specific binding. The results are expressed as IC50. The selectivity is expressed by the ratio of IC50 D2 to IC50 D3."}, "[2]": {"test_system": "cloned human D3 receptors vs D2 receptors", "test": "D3 vs D2 binding selectivity, cloned human receptors", "protocol": "as §1, §2"}, "D3 receptor": {"test_system": "D3 receptor", "test": "Hypothermia induced in rats by 7-OH-DPAT", "type": "in vivo, male Wistar rats", "conditions": "for ΔT °C.: means ± sem", "protocol": "in vivo: by the capacity of the molecules to modulate hypothermia induced in rats by the D3 dopaminergic agonist, 7-OH-DPAT, control of the body temperature being dependent upon the post-synaptic D3 receptor (M. J. Millan, op. cit.).\nThe tests were carried out on male Wistar rats weighing 200-250 g, placed in individual cages with free access to food and water. The products were dissolved in distilled water to which several drops of lactic acid are added. The injections were effected in a volume of 1.0 ml/kg by the subcutaneous route. The doses are expressed in base. The rectal temperature of the rats was recorded using a digital thermal probe (Millan et al., J.P.E.T., 1993, 264, p. 1364-1376). The rats were injected with the compound or vehicle, then put back in their cages for 30 minutes. The rats were then given an injection of 7-OH-DPAT (0.16 mg/kg) and put back in their cages. Thirty minutes later, the rectal temperature was measured and the difference to basal values (ΔT° C.) was determined. The inhibitory dose (95% confidence limit) for reducing the effect of 7-OH-DPAT by 50% was calculated according to Finney's method (Statistical Method in Biological Assays, 2nd ed., Hafner Publishing, New York, 1964)."}, "[3]": {"test": "Forced-swimming test (Porsolt)", "type": "in vivo", "conditions": "for Period of immobility: means ± sem", "protocol": "The procedure has been described in detail by Porsolt et al. (1978).\nThe experiment was carried out over two days, the test taking place on the second day. On the first day, the animal was placed for 15 minutes in a glass cylinder (30 cm×.O slashed.20 cm) filled with water, the temperature of which is maintained at 25° C. On the second day, the day of the test, the product or the solvent was administered to the animal by the subcutaneous route 30 minutes before the beginning of the test, At T0, the animal was placed in a cylinder filled with water for the 5 minutes the test lasted. The total period (expressed in seconds) of immobility of the animal was measured.\nThe inhibitory dose (95% confidence limit) for reducing immobility time by 50% was calculated according to Finney's method (Statistical Method in Biological Assays, 2nd ed., Hafner Publishing, New York, 1964)."}},
  "data": [
    {"smiles": "CCCN1CCO[C@@H]2c3cc4c(cc3CC[C@H]21)CCO4", "note": "(relative stereo) [Example 1, trans-3,4,4a,5,6,8,9,11b-octahydrofuro[2,3-b]1,4-oxazino[3,2-h]4-propyl-2H-naphthalene]", "values": [
      {"measurement": "selectivity for D3 receptors compared with D2 receptors, ratio of IC50 D2 to IC50 D3", "setting": "[1]", "value": 44},
      {"measurement": "selectivity for D3 receptors compared with D2 receptors, ratio of IC50 D2 to IC50 D3", "setting": "[2]", "value": 45},
      {"measurement": "inhibitory dose (ID50) for reducing the effect of 7-OH-DPAT by 50%", "setting": "D3 receptor; 95% confidence limit in brackets, rats", "value": "1.6 (0.7-3.7) mg/kg s.c."},
      {"measurement": "ΔT °C.", "setting": "D3 receptor; Ex 1 0.16 mg/kg s.c., then 7-OH-DPAT 0.16 mg/kg", "value": "-1.8 ± 0.2", "unit": "°C"},
      {"measurement": "ΔT °C.", "setting": "D3 receptor; Ex 1 0.63 mg/kg s.c., then 7-OH-DPAT 0.16 mg/kg", "value": "-1.3 ± 0.2", "unit": "°C"},
      {"measurement": "ΔT °C.", "setting": "D3 receptor; Ex 1 2.5 mg/kg s.c., then 7-OH-DPAT 0.16 mg/kg, * p < 0.05 versus vehicle/7-OH-DPAT", "value": "+0.2 ± 0.2 °C"},
      {"measurement": "ΔT °C.", "setting": "D3 receptor; Ex 1 10.0 mg/kg s.c., then 7-OH-DPAT 0.16 mg/kg, * p < 0.05 versus vehicle/7-OH-DPAT", "value": "-0.1 ± 0.2", "unit": "°C"},
      {"measurement": "Period of immobility", "setting": "[3]; dose 0.63 mg/kg s.c.", "value": "200.8 ± 17.4", "unit": "s"},
      {"measurement": "Period of immobility", "setting": "[3]; dose 1.25 mg/kg s.c.", "value": "107.1 ± 39.7", "unit": "s"},
      {"measurement": "Period of immobility", "setting": "[3]; dose 2.5 mg/kg s.c., * p < 0.05", "value": "63.1 ± 12.4", "unit": "s"},
      {"measurement": "Period of immobility", "setting": "[3]; dose 10.0 mg/kg s.c., * p < 0.05", "value": "28.2 ± 18.1", "unit": "s"},
      {"measurement": "ED50", "setting": "[3]; sc, 95% confidence limit in brackets, read-out: inhibitory dose (ID50) for reducing immobility time by 50%", "value": 1.8, "unit": "mg/kg"}
    ]},
    {"smiles": "CCCN(CCC)C1CCc2ccc(O)cc2C1", "note": "(stereo not shown) [Example 7-OH-DPAT, reference compound]", "values": [
      {"measurement": "selectivity for D3 receptors compared with D2 receptors, ratio of IC50 D2 to IC50 D3", "setting": "[1]", "value": 53},
      {"measurement": "ΔT °C.", "setting": "D3 receptor; injection 1 vehicle, injection 2 7-OH-DPAT 0.16 mg/kg s.c.", "value": "-1.4 ± 0.1", "unit": "°C"}
    ]},
    {"smiles": "CCCN[C@@H]1CCc2c(OC)cccc2[C@@H]1C", "note": "[AJ 76]", "values": [
      {"measurement": "selectivity for D3 receptors compared with D2 receptors, ratio of IC50 D2 to IC50 D3", "setting": "[2]", "value": 2.2}
    ]},
    {"smiles": "CCCN(CCC)[C@@H]1CCc2c(OC)cccc2[C@@H]1C", "note": "[(+)UH 232]", "values": [
      {"measurement": "selectivity for D3 receptors compared with D2 receptors, ratio of IC50 D2 to IC50 D3", "setting": "[2]", "value": 4.8}
    ]}
  ]
}
